From patent publication US7183301B2, “Heterocyclic compounds having antibacterial activity: process for their preparation and pharmaceutical compositions containing them” (Dr. Reddy's Research Foundation, priority 2000, dated 2007)
≈ marks a conversion by molar mass, not a printed value.

Experiments:
[1] = system: Staphylococcus aureus ATCC 49951 (DRCC 213, Smith S); experiment: MIC by broth microdilution, S. aureus DRCC 213 (Smith S); format: cell-based; details: ATCC49951, Mueller Hinton Broth, overnight 37° C., strain DRCC 213 (ATCC 49951), read-out: Antimicrobial Screening (MIC) Staphylococcus aureus 213 Smith S
Description: (§1) Minimum Inhibiton Concentrations (MICs) were determined by broth microdilution technique as per the guidelines prescribed om the fifth edition of Approved Standards, NCCLS document M7-A5 Vol 20-No 2, 2000 Villinova, Pa.
(§2) Initial stock solution of the test compound was prepared in DMSO. Subsequent two fold dilutions were carried out in sterile Mueller Hinton Broth (Difco) (MHB).
(§3) Frozen cultures stocks were inoculated into 50 ml sterile MHB in 250 ml Erlyn Meyer flasks.
(§4) Composition of MHB is as follows:
(§5) Flasks were incubated for 4 to 5 h at 35° C. on a rotary shaker at 150 rpm. Inoculum was prepared by diluting the culture in sterile MHB to obtain a turbidity of 0.5 McFarland standard. This corresponds to 1–2×10^8 CFU/ml. The stock was further diluted in sterile broth to obtain 1–2×10^6 CFU/ml. 50 μl of the above diluted inoculum was added from 1–10 wells. The plates were incubated overnight at 37° C.

[2] = system: Escherichia coli ATCC 25922 (DRCC 018, S); experiment: MIC by broth microdilution, E coli DRCC 018 (S); format: cell-based; details: ATCC25922, Mueller Hinton Broth, overnight 37° C., strain DRCC 018 (ATCC 25922), read-out: Antimicrobial Screening (MIC) E coli 18 S
Description: as §1, §2, §3, §4, §5

[3] = system: Enterococcus faecalis NCTC 12201 (DRCC 153, R); experiment: MIC by broth microdilution, Enterococcus DRCC 153 (R); format: cell-based; details: NCTC12201, Mueller Hinton Broth, overnight 37° C., strain DRCC 153 (E. faecalis NCTC 12201), read-out: Antimicrobial Screening (MIC) Enterococcus sp 153 R
Description: as §1, §2, §3, §4, §5

[4] = system: Staphylococcus aureus ATCC 33591 (DRCC 019, MRSA); experiment: MIC by broth microdilution, S. aureus DRCC 019 (MRSA); format: cell-based; details: Mueller Hinton Broth, overnight 37° C., strain DRCC 019 (ATCC 33591), read-out: Antimicrobial Screening (MIC) Staphylococcus aureus 019 MRSA
Description: as §1, §2, §3, §4, §5

[5] = system: Enterococcus faecium NCTC 12202 (DRCC 154, R); experiment: MIC by broth microdilution, Enterococcus DRCC 154 (R); format: cell-based; details: NCTC12202, Mueller Hinton Broth, overnight 37° C., strain DRCC 154 (E. faecium NCTC 12202), read-out: Antimicrobial Screening (MIC) Enterococcus sp 154 R
Description: as §1, §2, §3, §4, §5

[6] = system: Staphylococcus aureus ATCC 29213 (DRCC 035, S); experiment: MIC by broth microdilution, S. aureus DRCC 035 (S); format: cell-based; details: ATCC29213, Mueller Hinton Broth, overnight 37° C., strain DRCC 035 (ATCC 29213), read-out: Antimicrobial Screening (MIC) Staphylococcus aureus 035 S
Description: as §1, §2, §3, §4, §5

[7] = system: Enterococcus faecalis ATCC 29212 (DRCC 034, S); experiment: MIC by broth microdilution, Enterococcus DRCC 034 (S); format: cell-based; details: ATCC29212, Mueller Hinton Broth, overnight 37° C., strain DRCC 034 (E. faecalis ATCC 29212), read-out: Antimicrobial Screening (MIC) Enterococcus sp 034 S
Description: as §1, §2, §3, §4, §5

MIC [1] [µg/mL] | MIC [2] [µg/mL] | MIC [3] [µg/mL] | MIC [4] [µg/mL] | MIC [5] [µg/mL] | MIC [6] [µg/mL] | MIC [7] [µg/mL] | melting point [°C] | Compound
4 (≈ 11.9 µM) | 32 (≈ 94.9 µM) | 8 (≈ 23.7 µM) | 8 (≈ 23.7 µM) | 8 (≈ 23.7 µM) | 8 (≈ 23.7 µM) | 16 (≈ 47.4 µM) | – | CC(=O)NC[C@H]1CN(c2ccc(N3CCOC3=O)c(F)c2)C(=O)O1 [Example 40]
1 (≈ 3.13 µM) | 32 (≈ 100 µM) | 8 (≈ 25.1 µM) | 2 (≈ 6.26 µM) | 8 (≈ 25.1 µM) | 4 (≈ 12.5 µM) | – | – | CC(=O)NC[C@H]1CN(c2ccc(N3CCOC3=O)cc2)C(=O)O1 [Example 62]
2 (≈ 5.39 µM) | > 32 | 4 (≈ 10.8 µM) | 2 (≈ 5.39 µM) | 4 (≈ 10.8 µM) | 4 (≈ 10.8 µM) | 4 (≈ 10.8 µM) | – | CC(=S)NC[C@H]1CN(c2cc(F)c(N3CCOC3=O)c(F)c2)C(=O)O1 [Example 76]
– | – | – | – | – | – | – | 168 | CC(=S)NC[C@H]1CN(c2cc(F)c(N3CCOC3=O)c(F)c2)C(=O)O1 [Example 77]
2 (≈ 5.46 µM) | 32 (≈ 87.3 µM) | 8 (≈ 21.8 µM) | 2 (≈ 5.46 µM) | 8 (≈ 21.8 µM) | 4 (≈ 10.9 µM) | 4 (≈ 10.9 µM) | – | CC(=S)NC[C@H]1CN(c2ccc(N3CCN(C)C3=O)c(F)c2)C(=O)O1 [Example 79]
1 (≈ 2.71 µM) | > 32 | 2 (≈ 5.41 µM) | 1 (≈ 2.71 µM) | 2 (≈ 5.41 µM) | 2 (≈ 5.41 µM) | 2 (≈ 5.41 µM) | – | COC(=S)NC[C@H]1CN(c2ccc(N3CCOC3=O)c(F)c2)C(=O)O1 [Example 88]
4 (≈ 10.4 µM) | > 32 | 8 (≈ 20.9 µM) | 4 (≈ 10.4 µM) | 8 (≈ 20.9 µM) | 4 (≈ 10.4 µM) | 8 (≈ 20.9 µM) | – | CCOC(=S)NC[C@H]1CN(c2ccc(N3CCOC3=O)c(F)c2)C(=O)O1 [Example 89]
– | – | – | – | – | – | – | 197 | COC(=S)NC[C@H]1CN(c2ccc(N3CCOC3=S)c(F)c2)C(=O)O1 [Example 92]
2 (≈ 5.16 µM) | > 32 | 2 (≈ 5.16 µM) | 2 (≈ 5.16 µM) | 2 (≈ 5.16 µM) | 2 (≈ 5.16 µM) | 2 (≈ 5.16 µM) | – | COC(=S)NC[C@H]1CN(c2cc(F)c(N3CCOC3=O)c(F)c2)C(=O)O1 [Example 99]
0.5 (≈ 1.42 µM) | 32 (≈ 91.1 µM) | 1 (≈ 2.85 µM) | 0.5 (≈ 1.42 µM) | 1 (≈ 2.85 µM) | 0.5 (≈ 1.42 µM) | 1 (≈ 2.85 µM) | – | COC(=S)NC[C@H]1CN(c2ccc(N3CCOC3=O)cc2)C(=O)O1 [Example 100]
4 (≈ 10.5 µM) | 32 (≈ 84.3 µM) | 4 (≈ 10.5 µM) | 2 (≈ 5.27 µM) | 4 (≈ 10.5 µM) | 4 (≈ 10.5 µM) | 8 (≈ 21.1 µM) | – | CC(C)OC(=S)NC[C@H]1CN(c2ccc(N3CCOC3=O)cc2)C(=O)O1 [Example 107]
0.5 (≈ 1.31 µM) | 32 (≈ 83.7 µM) | 1 (≈ 2.61 µM) | 0.5 (≈ 1.31 µM) | 1 (≈ 2.61 µM) | 0.5 (≈ 1.31 µM) | 1 (≈ 2.61 µM) | – | COC(=S)NC[C@H]1CN(c2ccc(N3CC(=O)N(C)C3)c(F)c2)C(=O)O1 [Example 110]
4 (≈ 10.5 µM) | 32 (≈ 83.7 µM) | 4 (≈ 10.5 µM) | 2 (≈ 5.23 µM) | 8 (≈ 20.9 µM) | 4 (≈ 10.5 µM) | 4 (≈ 10.5 µM) | – | COC(=S)NC[C@H]1CN(c2ccc(N3CCN(C)C3=O)c(F)c2)C(=O)O1 [Example 113]
– | – | – | – | – | – | – | 160 | COC(=S)NC[C@H]1CN(c2ccc(N3CCN(Cc4ccccc4)C3=O)cc2)C(=O)O1 [Example 115]
– | – | – | – | – | – | – | 174 | COC(=S)NC[C@H]1CN(c2ccc(N3CCN(Cc4ccccc4)C3=O)c(F)c2)C(=O)O1 [Example 116]
– | – | – | – | – | – | – | 195 | COC(=S)NC[C@H]1CN(c2ccc(N3CCN(c4ccccc4)C3=O)c(F)c2)C(=O)O1 [Example 117]
– | – | – | – | – | – | – | 192 | COC(=S)NC[C@H]1CN(c2ccc(N3CC(=O)N(Cc4ccccc4)C3)c(F)c2)C(=O)O1 [Example 123]
0.25 (≈ 0.627 µM) | – | 0.25 (≈ 0.627 µM) | 0.25 (≈ 0.627 µM) | 0.5 (≈ 1.25 µM) | 0.5 (≈ 1.25 µM) | 0.5 (≈ 1.25 µM) | – | COC(=S)NC[C@H]1CN(c2ccc(N3CC(=O)N(CO)C3)c(F)c2)C(=O)O1 [Example 124]
0.25 (≈ 0.627 µM) | – | 0.25 (≈ 0.627 µM) | 0.25 (≈ 0.627 µM) | 0.5 (≈ 1.25 µM) | 0.5 (≈ 1.25 µM) | 0.5 (≈ 1.25 µM) | – | COC(=S)NC[C@H]1CN(c2ccc(N3CC(=S)N(C)C3)c(F)c2)C(=O)O1 [Example 125]
– | – | – | – | – | – | – | 223 | COC(=S)NC[C@H]1CN(c2ccc(N3CC(=S)N(C)C3)c(F)c2)C(=O)O1 [Example 126]
1 (≈ 2.42 µM) | – | 1 (≈ 2.42 µM) | 0.5 (≈ 1.21 µM) | 1 (≈ 2.42 µM) | 1 (≈ 2.42 µM) | 1 (≈ 2.42 µM) | – | COCN1CN(c2ccc(N3C[C@H](CNC(=S)OC)OC3=O)cc2F)CC1=O [Example 127]
